Values after ≈ are worked out from the molar mass of the structure shown.
Legend:
Experiment in all cases: Antibacterial activity in vitro, MIC by broth microdilution
[1] = tested on: S. pneumoniae Stpn_Mef 5654; assay type: cell-based, Streptococcus pneumoniae; details: Table 3, Strain ID J: S. pneumoniae Stpn_Mef 5654; unit assumed
Outline: (§1)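 NCCLS microdilution; CAMHB; 2-fold series; 3×10^5–7×10^5 CFU/mL; 35° C., 18-24 h, ambient air except S. pneumoniae (5-10% CO2, lysed horse blood 2-5%). Endpoint: no visible growth.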

[2] = tested on: S. pneumoniae Stpn_Erm S 4297; assay type: cell-based, Streptococcus pneumoniae; details: Table 3, Strain ID I: S. pneumoniae Stpn_Erm S 4297
Outline: as §1

[3] = tested on: S. pneumoniae Stpn_297-749 Pen R; assay type: cell-based, Streptococcus pneumoniae; details: Table 3, Strain ID F: S. pneumoniae Stpn_297-749 Pen R
Outline: as §1

S. pneumoniae Stpn_49619 = assay type: cell-based, Streptococcus pneumoniae; details: Table 3, Strain ID E: S. pneumoniae Stpn_49619
Outline: as §1

[4] = tested on: S. pneumoniae Stpn_280-962 Pen S; assay type: cell-based, Streptococcus pneumoniae; details: Table 3, Strain ID G: S. pneumoniae Stpn_280-962 Pen S
Outline: as §1

[5] = tested on: S. pneumoniae Stpn_Erm 6849; assay type: cell-based, Streptococcus pneumoniae; details: Table 3, Strain ID H: S. pneumoniae Stpn_Erm 6849; unit assumed
Outline: as §1

[6] = tested on: S. pneumoniae Stpn_Mef S 3427; assay type: cell-based, Streptococcus pneumoniae; details: Table 3, Strain ID K: S. pneumoniae Stpn_Mef S 3427
Outline: as §1

H. influenzae Hain_49247 = assay type: cell-based, Haemophilus influenzae; details: Table 3, Strain ID L: H. influenzae Hain_49247; unit assumed
Outline: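 Visible-growth inhibition defined the MIC, obtained by NCCLS broth microdilution at 35° C. over 18-24 hours with a final inoculum of 3×10^5–7×10^5 CFU/mL.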

[7] = tested on: S. epidermidis Step_14990; assay type: cell-based; details: Table 3, Strain ID A: S. epidermidis Step_14990; unit assumed
Outline: as §1

S. pyogenes Stpy_8668 = assay type: cell-based; details: Table 3, Strain ID D: S. pyogenes Stpy_8668
Outline: as §1

E. coli Esco_25922 = assay type: cell-based; details: Table 3, Strain ID M: E. coli Esco_25922; unit assumed
Outline: as §1

E. faecalis Enfa_29212 = assay type: cell-based; details: Table 3, Strain ID C: E. faecalis Enfa_29212
Outline: as §1

[8] = tested on: S. epidermidis Step_f50654 Pen S; assay type: cell-based; details: Table 3, Strain ID B: S. epidermidis Step_f50654 Pen S; unit assumed
Outline: as §1

MIC [1] | MIC ([2]; unit assumed) | MIC [3] | MIC (S. pneumoniae Stpn_49619) | MIC [4] | MIC [5] | MIC [6] | MIC (H. influenzae Hain_49247) | MIC [7] | MIC (S. pyogenes Stpy_8668) | MIC (E. coli Esco_25922) | MIC (E. faecalis Enfa_29212; unit assumed) | MIC [8] | MIC (E. faecalis Enfa_29212) | MIC [2] | MIC ([3]; unit assumed) | MIC (S. pneumoniae Stpn_49619; unit assumed) | MIC ([4]; unit assumed) | MIC ([6]; unit assumed) | MIC (S. pyogenes Stpy_8668; unit assumed) | Compound
0.2 µg/mL (≈ 0.26 µM) | 0.4 µg/mL (≈ 0.519 µM) | ≦0.5 | ≦0.5 | ≦0.5 | 6.25 µg/mL (≈ 8.12 µM) | ≦0.05 | 6.25 µg/mL (≈ 8.12 µM) | 0.2 µg/mL (≈ 0.26 µM) | ≦0.5 | > 50 µg/mL | 0.1 µg/mL (≈ 0.13 µM) | 0.4 µg/mL (≈ 0.519 µM) | – | – | – | – | – | – | – | CC[C@H]1OC(=O)[C@H](C)C(=O)[C@H](C)[C@@H](O[C@@H]2O[C@H](C)C[C@H](N(C)C)[C@H]2O)[C@@](C)(OC)C[C@@H](C)C(=O)[C@H](C)[C@@H]2[C@@H]1OC(=O)N2CCCCn1ccc2ccccc21 [Compound 4717]
0.2 µg/mL (≈ 0.256 µM) | 0.1 µg/mL (≈ 0.128 µM) | ≦0.05 | ≦0.05 | ≦0.05 | 25 µg/mL (≈ 32 µM) | ≦0.05 | 3.13 µg/mL (≈ 4 µM) | 0.2 µg/mL (≈ 0.256 µM) | ≦0.05 | 25 µg/mL (≈ 32 µM) | – | 0.2 µg/mL (≈ 0.256 µM) | ≦0.05 | – | – | – | – | – | – | CC[C@H]1OC(=O)[C@H](C)C(=O)[C@H](C)[C@@H](O[C@@H]2O[C@H](C)C[C@H](N(C)C)[C@H]2O)[C@@](C)(OC)C[C@@H](C)C(=O)[C@H](C)[C@@H]2[C@@H]1OC(=O)N2CCCCc1ccc2ccccc2n1 [Compound 5960]
0.4 µg/mL (≈ 0.512 µM) | 0.1 µg/mL (≈ 0.128 µM) | ≦0.05 | ≦0.05 | ≦0.05 | 3.13 µg/mL (≈ 4 µM) | ≦0.5 | 1.56 µg/mL (≈ 1.99 µM) | 0.1 µg/mL (≈ 0.128 µM) | ≦0.05 | 6.25 µg/mL (≈ 7.99 µM) | – | 0.1 µg/mL (≈ 0.128 µM) | ≦0.05 | – | – | – | – | – | – | CC[C@H]1OC(=O)[C@H](C)C(=O)[C@H](C)[C@@H](O[C@@H]2O[C@H](C)C[C@H](N(C)C)[C@H]2O)[C@@](C)(OC)C[C@@H](C)C(=O)[C@H](C)[C@@H]2[C@@H]1OC(=O)N2CCCCc1ccnc2ccccc12 [Compound 6220]
0.4 µg/mL (≈ 0.502 µM) | – | ≦0.05 | ≦0.05 | ≦0.05 | 0.1 µg/mL (≈ 0.125 µM) | ≦0.05 | 3.13 µg/mL (≈ 3.93 µM) | 0.1 µg/mL (≈ 0.125 µM) | ≦0.05 | 25 µg/mL (≈ 31.4 µM) | – | 0.1 µg/mL (≈ 0.125 µM) | ≦0.05 | ≦0.05 | – | – | – | – | – | CC[C@H]1OC(=O)[C@H](C)C(=O)[C@H](C)[C@@H](O[C@@H]2O[C@H](C)C[C@H](N(C)C)[C@H]2O)[C@@](C)(OC)C[C@@H](C)C(=O)[C@H](C)[C@@H]2[C@@H]1OC(=O)N2CCCCn1cnc(-c2ccccc2)c1 [Compound 6221]
0.78 µg/mL (≈ 1.25 µM) | > 50 µg/mL | – | – | – | > 50 µg/mL | – | 25 µg/mL (≈ 40.1 µM) | 1.56 µg/mL (≈ 2.5 µM) | – | 50 µg/mL (≈ 80.2 µM) | 0.4 µg/mL (≈ 0.641 µM) | 1.56 µg/mL (≈ 2.5 µM) | – | – | 0.4 µg/mL (≈ 0.641 µM) | 0.2 µg/mL (≈ 0.321 µM) | 0.2 µg/mL (≈ 0.321 µM) | 0.4 µg/mL (≈ 0.641 µM) | 0.2 µg/mL (≈ 0.321 µM) | CC[C@H]1OC(=O)[C@H](C)C(=O)[C@H](C)[C@@H](O[C@@H]2O[C@H](C)C[C@H](N(C)C)[C@H]2O)[C@@](C)(OC)C[C@@H](C)C2=NCCN3C(=O)O[C@H]1[C@H]3[C@H]2C [Compound 6222]
0.78 µg/mL (≈ 1.22 µM) | > 50 µg/mL | – | – | – | > 50 µg/mL | – | > 50 µg/mL | 1.56 µg/mL (≈ 2.45 µM) | – | 50 µg/mL (≈ 78.4 µM) | 0.78 µg/mL (≈ 1.22 µM) | 3.13 µg/mL (≈ 4.91 µM) | – | – | 0.2 µg/mL (≈ 0.314 µM) | 0.2 µg/mL (≈ 0.314 µM) | 0.2 µg/mL (≈ 0.314 µM) | 0.4 µg/mL (≈ 0.627 µM) | 0.2 µg/mL (≈ 0.314 µM) | CC[C@H]1OC(=O)[C@H](C)C(=O)[C@H](C)[C@@H](O[C@@H]2O[C@H](C)C[C@H](N(C)C)[C@H]2O)[C@@](C)(OC)C[C@@H](C)C2=N[C@@H](C)CN3C(=O)O[C@H]1[C@H]3[C@H]2C [Compound 6223]
